# Reference: PMC3199867, “Targeting surface nucleolin with multivalent HB-19 and related Nucant pseudopeptides results in distinct inhibitory mechanisms depending on the malignant tumor cell type” (BMC Cancer, 2011)
# Where no end group is shown, it is not given here.
# Assays:
# surface nucleolin [1] = test: Binding of biotinylated Nucant to surface nucleolin on HuT 78 cells (avidin recovery, immunoblotting); parameters: species or system human; conditions: HuT 78 cells, 0, 1, 2, 4, 8 μM
# Experimental: (§1) Two days after seeding, subconfluent cells (about 5 × 10^6 cells/75 cm^2 flask) were incubated (45 min, 20°C) with 5 μM of HB-19/Btn. After washing extensively in PBS containing 1 mM EDTA (PBS-EDTA), nucleus-free cell extracts were prepared in lysis buffer E. The complex formed between cell-surface expressed nucleolin and HB-19/Btn was isolated by purification of the extracts using NeutrAvidin agarose (100 μl; Pierce Biotechnology) in PBS-EDTA. After 3 hours at 6°C, the avidin-agarose samples were washed extensively with PBS-EDTA. The purified surface nucleolin was eluted in the electrophoresis sample buffer containing SDS and analyzed by 10% SDS-polyacrylamide gel electrophoresis (SDS-PAGE). […] All cells investigated in this study (MDA-MB-231, MDA-MB-435, LNCaP, HeLa, SW480, SW620, and T29) expressed the cell surface nucleolin assayed by this procedure.
# (§2) Figure 9 Nucant pseudopeptides bind surface nucleolin at a higher affinity compared to binding to nucleophosmin. A. Recovery of surface nucleolin and associated proteins by using biotinylated Nucant. […] Purified material was then analyzed by SDS-PAGE and stained with Brilliant Blue G-Colloidal Concentrate staining (panel Staining). Similar samples were also analyzed by immunoblotting using anti-nucleolin mAb D3 (panel anti-nucleolin) or anti-nucleophosmin mAb EP1848Y (panel anti-nucleophosmin)(Methods). […]
# HuT 78 cells = test: Cell entry and localization of biotinylated pseudopeptides, immunofluorescence; type: cell-based, human; conditions: HuT 78, 15 μM, 37°C, 5 hours, PFA/Triton fixation, anti-biotin immunofluorescence
# Experimental: Figure 8 Nucant pseudopeptides are internalized into cells and accumulate in the cytoplasm without translocation to the nucleus. […] C. […] The nuclei stained with DAPI are shown on the right of each panel. Treatment of HuT 78 cells at 15 μM of biotinylated N3 or N7 leads to 25 and 40% cell death after 24 of culture, respectively.
# HuT 78 = test: Cell death (trypan blue uptake); type: cell-based, human; conditions: HuT 78 cells, 15 μM, after 24 of culture
# Experimental: Human breast (MDA-MB-231, MDA-MB-435 [37]), prostate (LNCaP, from American Type Culture Collection, ATCC, Rockville, MD), and cervical (HeLa) epithelial cancer cells were grown in DMEM-glutamax medium (Gibco Invitrogen, Cergy-Pontoise, France) containing GlutaMAX™, 4.5 g/l glucose and supplemented with 10% heat-inactivated (56°C for 30 min) fetal bovine serum (FBS; Hyclone, Thermo Fisher Scientific, Inc). Human SW480 cells are derived from a grade 3-4 colon carcinoma, while the highly metastatic counterpart SW620 is established from the lymph node of a person. Both SW480 and SW620 cells (obtained from Francis Raul, IRCAD) are highly tumorigenic in nude mice. They were cultured in D-MEM, 10% FCS. The murine melanoma TIII cell line was obtained from Armelle Prévost-Blondel. Murine T29 lymphoma cells, obtained from Philippe Kastner (CNRS, Strasbourg), have been established from Ik^L/L tumors from mice carrying a hypomorphic mutation (Ik^L/L) in the Ikaros gene encoding a transcription factor that regulates lymphocyte differentiation, and acts also as a tumor suppressor in T lymphocytes. The T29 cells were cultured in RPMI medium containing 25 mM Hepes pH 7.6, 1 mM sodium pyruvate, and 10% FCS. Human leukemia cell lines, Jurkat (acute T cell leukemia), HuT 78 (cutaneous T lymphocyte), RAJI (Burkitt lymphoma), and HL60 (promyelocytic leukemia) were cultured in RPMI-1640 medium (Gibco) containing GlutaMAX™, and supplemented with 10% heat-inactivated FBS as described before. The wild-type Chinese hamster ovary cell line (CHO K1) was purchased from American Type Culture Collection (ATCC; Rockville, MD). The CHO LRP1-null cell line (CHO-13-5-1) was kindly provided by D. Strickland [47]. They were cultured in Ham's F12K medium. All cells were cultured with 10% (v/v) heat inactivated (56°C, 30 min) fetal bovine serum (FBS) (Roche Molecular Biochemicals, Indianapolis, IN) and 50 international units/mL penicillin-streptomycin (Invitrogen). Cell death was monitored conveniently by uptake of the trypan blue dye due to plasma membrane permeability of dying and/or dead cells. […]
# surface nucleolin [2] = test: Binding of biotinylated Nucant to surface nucleolin on MDA-MB 231 cells (avidin recovery, immunoblotting); parameters: species or system human; conditions: data not presented
# Experimental: as §1, §2
# nucleophosmin = test: Binding of biotinylated Nucant to nucleophosmin on HuT 78 cells (avidin recovery, immunoblotting); parameters: species or system human; conditions: HuT 78 cells, 0, 1, 2, 4, 8 μM
# Experimental: as §1, §2
substance,measurement,setting,value
"biotinylated N7: biotinylated hexavalent N7 pseudopeptide (chain 1 KAKPGKAKPGKAKPG; chain 2 Lys-Pro-Arg; also: biotinylated (site not given here), hexavalent branched pseudopeptide, linkage not given here)",concentration of maximum binding to surface nucleolin,surface nucleolin [1],4 µM
same,cell entry / intracellular localization,HuT 78 cells,"most of the signal is located in the cytoplasm, with almost no signal in the nuclei"
same,cell death,HuT 78,40%
same,concentration of maximum binding to surface nucleolin,surface nucleolin [2],3 µM
same,concentration at which nucleophosmin binding occurs,nucleophosmin,8 µM
